“And” between values parts separate entries of the source, which are not always exact repeats. Equal entries are not always repeated. Where two headings read alike, the source gives them in different places.
Tests used:
C. elegans = C. elegans motor phenotype scoring on solid media (Punc/jerky-unc, coiled, paralyzed), wild-type young adults; type: in vivo, Caenorhabditis elegans; conditions: for any phene, mean % fraction of young adults exhibiting any phenotype (coiled, jerky-Unc or paralyzed) / atypical locomotion (number of animals) / coiled (number of animals) / no phene (number of animals) / paralyzed (number of animals) / any phene (mean % fraction of young adults exhibiting any phenotype: coiled, jerky-Unc or paralyzed): one hour; for any phene, mean % fraction of young adults exhibiting any phenotype (coiled, jerky-Unc or paralyzed) / any phene (mean % fraction of young adults exhibiting any phenotype: coiled, jerky-Unc or paralyzed): mean of three biological replicates; for atypical locomotion (number of animals) / coiled (number of animals) / no phene (number of animals) / paralyzed (number of animals): young adults, 20 animals per trial, single replicate counts; for EC50: Caenorhabditis elegans, read-out: C. elegans - motor disruption EC50
Pristionchus pacificus = Pristionchus pacificus motor disruption dose-response on solid media, 1 h; conditions: for mean % any phene (coiled, jerky-Unc or paralyzed): Pristionchus pacificus young adults, mean of three biological replicates; for EC50: Pristionchus pacificus, 1 h, read-out: P. pacificus motor disruption EC50
[1] = system: Dirofilaria immitis L3/L4; assay: Dirofilaria immitis L3/L4 motility assay (DiroImager, 72 h); conditions: Dirofilaria immitis L4
[2] = system: Dirofilaria immitis microfilariae; assay: Dirofilaria immitis microfilariae immobility assay (DiroImager, 72 h); conditions: for % effect (motility), DIROIM MF: Dirofilaria immitis microfilariae; for EC50: Dirofilaria immitis, 72 h, read-out: Dirofilaria immitis filariae EC50
Procedure: We conducted experiments with the Missouri isolate of Dirofilaria immitis in two labs. In the first set of experiments, shown as part of Fig. 3c, D. immitis microfilariae and larval stage 3 (L3) worms were assayed in the laboratories of Bayer Animal Health GmbH (Monheim, Germany). For microfilariae immobility assays, approximately 250 freshly purified microfilariae were cultured in single wells of a 96-well microtiter plate containing supplemented RPMI 1640 medium[68],[69]. […] Microfilariae exposed to medium substituted with 1% DMSO were used as negative controls. Motility of microfilariae was evaluated after 72 h of drug exposure using an image-based approach—DiroImager, developed by Bayer Technology Services. As described in detail in refs. [68],[69], the DiroImager is an automated high-throughput platform that allows for high-resolution optical imaging of an entire 96-well microtiter plate.

[3] = any motor phenotype after 1 h on solid media, ± 95% CI
[4] = conc 3.75, observed at one hour
[5] = 3.75uM, third c14 line of each analog
[6] = 15uM, second c14 line of each analog
[7] = 60uM, first c14 line of each analog
[8] = conc 3.75, count of 20 animals per trial, one hour

| Compound | EC50 (C. elegans; [3]) | mean % any phene (coiled, jerky-Unc or paralyzed) (Pristionchus pacificus; [4]) | mean % any phene (coiled, jerky-Unc or paralyzed) (Pristionchus pacificus; conc 15, observed at one hour) | mean % any phene (coiled, jerky-Unc or paralyzed) (Pristionchus pacificus; conc 60, observed at one hour) | EC50 (Pristionchus pacificus) | % effect (motility), DIROIM L4 ([1]; 2 µM) | % effect (motility), DIROIM L4 ([1]; 10 µM) | % effect (motility), DIROIM L4 ([1]; 50 µM) | % effect (motility), DIROIM MF ([2]; 0.016 µM) | % effect (motility), DIROIM MF ([2]; 0.08 µM) | % effect (motility), DIROIM MF ([2]; 0.4 µM) | % effect (motility), DIROIM MF ([2]; 2 µM) | % effect (motility), DIROIM MF ([2]; 10 µM) | any phene (mean % fraction of young adults exhibiting any phenotype: coiled, jerky-Unc or paralyzed) (C. elegans; [5]) | any phene (mean % fraction of young adults exhibiting any phenotype: coiled, jerky-Unc or paralyzed) (C. elegans; [6]) | any phene (mean % fraction of young adults exhibiting any phenotype: coiled, jerky-Unc or paralyzed) (C. elegans; [7]) | other results |
| --- | --- | --- | --- | --- | --- | --- | --- | --- | --- | --- | --- | --- | --- | --- | --- | --- | --- |
| O=C(C1CCCCC1)N1CCN(c2ccc([N+](=O)[O-])cc2)CC1 [Nemacol-16] | > 60 µM | 0% and 3.333% | 8.333% and 5% | 36.6667% | > 60 µM | 0% | 10% | 35% | 0% | 0% | 0% | 0% | 40% | – | – | – | any phene, mean % fraction of young adults exhibiting any phenotype (coiled, jerky-Unc or paralyzed) (C. elegans; 3.75uM): 0.8333%; atypical locomotion (number of animals) (C. elegans; 3.75uM): 0 and 1; coiled (number of animals) (C. elegans; 3.75uM): 0; no phene (number of animals) (C. elegans; 3.75uM): 20 and 19; paralyzed (number of animals) (C. elegans; 3.75uM): 0; any phene, mean % fraction of young adults exhibiting any phenotype (coiled, jerky-Unc or paralyzed) (C. elegans; 15uM): 0.8333%; atypical locomotion (number of animals) (C. elegans; 15uM): 0; coiled (number of animals) (C. elegans; 15uM): 0; no phene (number of animals) (C. elegans; 15uM): 20 and 19; paralyzed (number of animals) (C. elegans; 15uM): 0 and 1; any phene, mean % fraction of young adults exhibiting any phenotype (coiled, jerky-Unc or paralyzed) (C. elegans; 60uM): 4.167%; atypical locomotion (number of animals) (C. elegans; 60uM): 4 and 1 and 0; coiled (number of animals) (C. elegans; 60uM): 0; no phene (number of animals) (C. elegans; 60uM): 16 and 19 and 20; paralyzed (number of animals) (C. elegans; 60uM): 0 |
| O=C(C1CCCC1)N1CCN(c2ccc([N+](=O)[O-])cc2)CC1 [Nemacol-17] | > 60 µM | 2.5% | 3.333% | 26.6667% | > 60 µM | 0% | 0% | 15% | 0% | 0% | 0% | 0% | 0% | – | – | – | any phene, mean % fraction of young adults exhibiting any phenotype (coiled, jerky-Unc or paralyzed) (C. elegans; 3.75uM): 0%; atypical locomotion (number of animals) (C. elegans; 3.75uM): 0; coiled (number of animals) (C. elegans; 3.75uM): 0; no phene (number of animals) (C. elegans; 3.75uM): 20; paralyzed (number of animals) (C. elegans; 3.75uM): 0; any phene, mean % fraction of young adults exhibiting any phenotype (coiled, jerky-Unc or paralyzed) (C. elegans; 15uM): 0%; atypical locomotion (number of animals) (C. elegans; 15uM): 0; coiled (number of animals) (C. elegans; 15uM): 0; no phene (number of animals) (C. elegans; 15uM): 20; paralyzed (number of animals) (C. elegans; 15uM): 0; any phene, mean % fraction of young adults exhibiting any phenotype (coiled, jerky-Unc or paralyzed) (C. elegans; 60uM): 9.167%; atypical locomotion (number of animals) (C. elegans; 60uM): 0 and 2 and 3 and 6; coiled (number of animals) (C. elegans; 60uM): 0; no phene (number of animals) (C. elegans; 60uM): 20 and 18 and 17 and 14; paralyzed (number of animals) (C. elegans; 60uM): 0 |
| O=C(C1CCC1)N1CCN(c2ccc(F)cc2)CC1 [Nemacol-18] | – | 3.333% | 3.333% | 15.8333% | > 60 µM | 5% | 0% | 10% | 0% | 0% | 0% | 0% | 0% | 0% | 10% | 27.5% | EC50 (C. elegans; 1 h): > 60 µM; rep 1 atypical locomotion (Pristionchus pacificus; [8]): 0; rep 1 coiled (Pristionchus pacificus; [8]): 0; rep 1 no phene (Pristionchus pacificus; [8]): 20; rep 1 paralyzed (Pristionchus pacificus; [8]): 0; rep 2 atypical locomotion (Pristionchus pacificus; [8]): 0; rep 2 coiled (Pristionchus pacificus; [8]): 0; rep 2 no phene (Pristionchus pacificus; [8]): 20; rep 2 paralyzed (Pristionchus pacificus; [8]): 0; rep 3 atypical locomotion (Pristionchus pacificus; [8]): 0; rep 3 coiled (Pristionchus pacificus; [8]): 0; rep 3 no phene (Pristionchus pacificus; [8]): 19; rep 3 paralyzed (Pristionchus pacificus; [8]): 1 |
| O=[N+]([O-])c1ccc(N2CCN(C3CCCCCCC3)CC2)cc1 [Nemacol-21] | 19.6 ± 37.4 µM | 0.8333% | 6.667% | 50% | 60 ± 10.2 µM | – | 0% | 0% | 0% | 0% | 0% | 0% | 0% | 3.333% | 17.5% | – | – |
| Cc1cc([N+](=O)[O-])ccc1N1CCN(CC2CCCCC2)CC1 [Nemacol-23, 1-(cyclohexylmethyl)−4-(2-methyl-4-nitrophenyl)piperazine] | 32.1 ± 48.2 µM | 1.667% | 0.8333% | 7.5% | > 60 µM | 0% | 5% | 100% | 0% | 0% | 0% | 0% | 0% | 15.8333% | 33.3333% | 63.3333% | – |
| Cc1cc(N2CCN(CC3CCCCC3)CC2)ccc1[N+](=O)[O-] [Nemacol-25, 1-(cyclohexylmethyl)−4-(3-methyl-4-nitrophenyl)piperazine] | 41 ± 26.8 µM | 0.8333% | 6.667% | 29.1667% | > 60 µM | 0% | 11% | 100% | 0% | 0% | 0% | 40% | 60% | 2.5% | 20.8333% | 62.5% | EC50 [2]: 5.11 µM |
| N#Cc1ccc(N2CCN(CC3CCCC3)CC2)cc1 [Nemacol-27, 4-(4-(cyclopentylmethyl)piperazin-1-yl)benzonitrile] | 21.9 ± 8.2 µM | 9.167% and 5% | 46.6667% and 3.333% | 88.3333% | 16.4 ± 3.6 µM | 0% | 10% | 15% | 0% | 0% | 0% | 0% | 0% | 0.8333% | 29.1667% | 91.3333% | – |
| Cc1cccc(CN2CCN(c3ccc([N+](=O)[O-])cc3)CC2)c1 [Nemacol-40] | – | 5% | 4.167% | 11.9444% | > 60 µM | 0% | 10% | 100% | 0% | 0% | 0% | 0% | 40% | 5% | 14.1667% | 37.5% | EC50 (C. elegans; 1 h): > 60 µM; EC50 [2]: 10.7 µM |

Reference: PMC10066365, “Nemacol is a small molecule inhibitor of C. elegans vesicular acetylcholine transporter with anthelmintic potential” (Nature Communications, 2023)
